Ends that are not written are not given here. * marks the point of attachment. FITC = O=C1OC2(c3ccc(O)cc3Oc3cc(O)ccc32)c2ccc(NC(=S)*)cc21
Experiments:
[1] = biological target: T1, collagen IV in MMTV-PyMT tumors (Mus musculus, UniProt P02463+P08122); assay: Co-localization of injected FITC peptide with collagen IV immunostaining in tumors; assay type: in vivo; settings: 100 μg injected into tail vein, 15 minutes; connective tissue surrounding tumor masses
T1 construct: from tissue; host or cells: breast tumors of MMTV PyMT mice
Method: Localization of collagen IV was compared to the localization of CREKA (SEQ ID NO: 1) peptide in breast tumors.
Immunostaining was performed after injection of 100 μg FITC-CREKA (SEQ ID NO: 1) into the tail vein of MMTV PyMT mice. After 15 minutes, tumors were dissected, fixed, stained for collagen IV and counter-stained with DAPI essentially as follows. Collagen IV was detected by immunofluorescence as described in Engvall et al., supra, 1982, with the following modifications. Briefly, mouse tissues were fixed with 3.7% paraformaldehyde for two hours, washed with PBS, and incubated in glycine (0.01%, pH 7.4) for 12 hours to quench autofluorescence of the samples. Specimens were then treated with increasing concentrations of sucrose (12%, 15%, 18%), embedded in Tissue-Tek© (Miles Inc.), frozen, and cut into 5 μm sections. After an overnight incubation with rabbit antiserum to collagen IV (diluted 1:40 in PBS) at 4° C. (Engvall et al., supra, 1982), the sections were washed with PBS and incubated with rhodamine-labeled goat anti-rabbit antibody (DAKO) at a dilution of 1:30 for 30 minutes. After washing, the sections were mounted in 90% glycerol.

MMTV PyMT tumors = assay: Tissue localization of fluorescein- and rhodamine-labeled peptide after intravenous injection; assay type: in vivo, mouse; settings: for detection of labeled peptide in MMTV PyMT tumors / detection of labeled peptide in normal tissues: 15 minutes after intravenous injection; for detection of labeled peptide in normal tissues: brain or liver
Method: Similarly, fluorescein (FITC) and rhodamine labeled CREKA (SEQ ID NO: 1) peptides also were detected in MMTV PyMT tumors 15 minutes after intravenous injection but were not observed in normal tissues such as the brain or liver (compare FIG. 3A with FIGS. 3B and 3C). […] As expected, control organs such as the heart, injected with rhodamine-labeled CREKA (SEQ ID NO: 1) and FITC-tomato-lectin, which stains blood vessels, were negative for CREKA (SEQ ID NO: 1) peptide staining (see FIG. 3F).
Peptide synthesis and labeling of peptides with fluorescein and rhodamine was carried out as described in Wender et al., Proc. Natl. Acad. Sci., USA 97:13003-13008 (2000), and Oku et al., supra, 2002, and detected essentially as follows. A 1 mg/ml solution of fluorescein-labeled CREKA (SEQ ID NO: 1) peptide in PBS was injected into the tail vein of MMTV PyMT mice. After 15 minutes or two hours of circulation, mice were perfused through the heart with 10 ml PBS, and the indicated organs harvested. Tissues were dissected, fixed with 3.7% paraformaldehyde for two hours, washed with PBS, and soaked in glycine (0.01%, pH 7.4) for 12 hours. Specimens were then treated with a sucrose gradient (12%, 15%, 18%), embedded in Tissue-Tek© (Miles Inc.; Elkhardt, Ind.) and frozen. Subsequently, 5 μm sections were prepared for fluorescence microscopy, and 50 μm sections were prepared for confocal microscopy. To detect blood vessels, 100 μl of 1 mg/ml solution of fluorescein-labeled tomato lectin (Vector Labs; Burlingame, Calif.) was injected into mice in PBS.

[2] = biological target: T2, collagen IV fragment of clone #3 (SEQ ID NO: 2) (Mus musculus, UniProt P08122); assay: Binding of phage displaying clone #3 collagen IV fragment to immobilized CREKA peptide and its competition; design: effect of fibronectin on phage binding (clone #3 fragment / immobilized CREKA): dose or concentration left out as unconfirmed
T2 construct: made in house; host or cells: T7 phage (modified T7Select1-2b) amplified in BLT 5615 bacteria; cDNA from mouse 4T1 cells
T2 sequence (P08122 with tags, fused parts or gaps): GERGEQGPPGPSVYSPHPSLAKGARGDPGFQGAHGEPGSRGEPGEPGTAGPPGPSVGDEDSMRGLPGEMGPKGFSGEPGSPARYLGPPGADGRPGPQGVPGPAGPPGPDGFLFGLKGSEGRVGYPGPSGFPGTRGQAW
Method: Expression cloning was performed essentially as described in Essler and Ruoslahti, Proc. Natl. Acad. Sci., USA 99:2252-2257 (2002). CREKA (SEQ ID NO: 1) peptide was synthesized on a Symphony synthesizer (Rainin Instruments; Emeryville, Calif.) at The Burnham Institute peptide facility, and purified by high performance liquid chromatography. […] Biotin-labeled peptide (2 mg/ml) was immobilized on a streptavidin-coated 96 well Reacti-Bind® polystyrene strip plate (Pierce; Rockford, Ill.) by coating overnight at room temperature with 100 μl of 2 mg/ml biotin-CREKA (SEQ ID NO: 1) in PBS. The wells were subsequently treated three times with 200 μl SuperBlock® blocking buffer (Pierce).
Binding assays were performed as follows. […]
For competitions with free CREKA (SEQ ID NO: 1) peptide, phage displaying the clone #3 collagen IV fragment (SEQ ID NO: 2; 1×10^7 pfu) were applied to CREKA (SEQ ID NO: 1)-coated surfaces in 96-well ELISA plates prepared as described above, and incubated for one […] in the presence of 0.01 mg, 0.05 mg, or 0.1 mg soluble CREKA (SEQ ID NO: 1) peptide in 100 μl PBS. […] After 20 washes with 100 μl PBS, phage particles were recovered by infecting BL21 bacteria, and the number of attached phage determined. Phage output was determined as a percentage of phage recovered from wells not treated with soluble peptide.

tumor = assay: In vivo tumor homing of CREKA phage with co-injection of gelatin
[3] = system: vasculature of MDA-MB-435 human breast cancer cell xenografts; assay: In vivo homing of phage to MDA-MB-435 xenografts in nude mice (phage recovery, pfu); design: species or system mouse; settings: co-injection
Method: Phage preparations (1×10^9 plaque forming units (pfu)) of CREKA (SEQ ID NO: 1)-displaying phage were injected into tumor-bearing mice and subsequently recovered from breast tumors and a variety of normal tissues. […] The CREKA (SEQ ID NO: 1) phage also homed to the vasculature of MDA-MB-435 human breast cancer cell xenografts grown in the mammary fat pad of nude mice with a 20-fold specificity over non-recombinant phage as shown in FIG. 1B.
In vivo phage display screens were performed with 65 to 75 day old transgenic MMTV PyMT mice obtained from Dr. William Muller. MDA-MB-435 tumors were generated as described in Laakkonen et al., Nat. Med. 7:751-755 (2002). Briefly, 10^6 MDA-MB-435 cells in 100 μl phosphate buffered saline (PBS) were injected into the mammary fat pad of nude mice. Tumors were grown for five weeks before the animals were used in vivo studies. In vivo phage screening was performed as described in Porkka et al., Proc. Natl. Acad. Sci., USA 99:7444-7449 (2002), with a few modifications. Briefly, mice were anesthetized with avertin and then injected intravenously with 10^9 pfu of the CX7C library. Mice were perfused through the heart with 10 ml of PBS seven minutes after the injection. […] Cell-adherent phage particles were recovered by infecting BL21 bacteria (Novagen), and the number of phage quantified by plaque assay.

mitochondrial membranes = settings: concentration of 10 μM; cited from earlier work
[4] = after two hours, localizing outside the blood vessels

T1 sequence (P02463 173-1669): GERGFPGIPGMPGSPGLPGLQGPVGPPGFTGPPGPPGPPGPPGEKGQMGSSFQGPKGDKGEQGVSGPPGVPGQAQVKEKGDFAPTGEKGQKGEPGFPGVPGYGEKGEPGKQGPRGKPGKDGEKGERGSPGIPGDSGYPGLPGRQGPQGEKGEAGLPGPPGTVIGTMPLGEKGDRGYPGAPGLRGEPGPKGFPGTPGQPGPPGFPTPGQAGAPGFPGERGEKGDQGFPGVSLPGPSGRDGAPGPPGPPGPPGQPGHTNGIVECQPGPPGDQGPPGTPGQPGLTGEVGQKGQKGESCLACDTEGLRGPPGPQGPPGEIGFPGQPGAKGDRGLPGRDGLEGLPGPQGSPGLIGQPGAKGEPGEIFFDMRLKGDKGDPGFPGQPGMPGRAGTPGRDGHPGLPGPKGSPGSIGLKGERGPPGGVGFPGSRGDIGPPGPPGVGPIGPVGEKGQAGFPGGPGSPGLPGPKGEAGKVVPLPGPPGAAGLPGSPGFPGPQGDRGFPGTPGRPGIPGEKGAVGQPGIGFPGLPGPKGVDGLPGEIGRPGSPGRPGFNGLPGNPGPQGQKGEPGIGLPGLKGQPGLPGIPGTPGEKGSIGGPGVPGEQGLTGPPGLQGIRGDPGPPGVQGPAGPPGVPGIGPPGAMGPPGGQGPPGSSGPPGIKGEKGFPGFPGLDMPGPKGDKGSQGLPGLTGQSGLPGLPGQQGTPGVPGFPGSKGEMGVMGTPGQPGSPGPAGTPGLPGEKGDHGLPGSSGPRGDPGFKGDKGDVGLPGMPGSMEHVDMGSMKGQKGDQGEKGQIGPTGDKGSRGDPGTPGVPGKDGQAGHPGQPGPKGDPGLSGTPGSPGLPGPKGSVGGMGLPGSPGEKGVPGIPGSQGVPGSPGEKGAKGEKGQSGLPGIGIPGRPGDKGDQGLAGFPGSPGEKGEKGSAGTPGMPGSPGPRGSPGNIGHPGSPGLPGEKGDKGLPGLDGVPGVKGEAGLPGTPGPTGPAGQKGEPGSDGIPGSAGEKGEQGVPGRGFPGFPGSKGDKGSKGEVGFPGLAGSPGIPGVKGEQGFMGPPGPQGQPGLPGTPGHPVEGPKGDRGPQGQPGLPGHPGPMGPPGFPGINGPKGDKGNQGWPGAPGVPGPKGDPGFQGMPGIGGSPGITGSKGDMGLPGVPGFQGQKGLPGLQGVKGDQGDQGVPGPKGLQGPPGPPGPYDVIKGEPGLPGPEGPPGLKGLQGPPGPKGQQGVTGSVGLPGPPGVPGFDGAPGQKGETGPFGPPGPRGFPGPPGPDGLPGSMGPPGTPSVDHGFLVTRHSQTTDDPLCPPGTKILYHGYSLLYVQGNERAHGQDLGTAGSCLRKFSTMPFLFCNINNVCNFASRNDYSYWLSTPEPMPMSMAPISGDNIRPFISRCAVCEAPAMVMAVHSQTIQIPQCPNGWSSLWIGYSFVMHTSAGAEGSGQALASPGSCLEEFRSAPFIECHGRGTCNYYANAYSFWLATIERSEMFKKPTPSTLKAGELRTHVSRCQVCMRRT
T1 sequence (P08122 184-1707): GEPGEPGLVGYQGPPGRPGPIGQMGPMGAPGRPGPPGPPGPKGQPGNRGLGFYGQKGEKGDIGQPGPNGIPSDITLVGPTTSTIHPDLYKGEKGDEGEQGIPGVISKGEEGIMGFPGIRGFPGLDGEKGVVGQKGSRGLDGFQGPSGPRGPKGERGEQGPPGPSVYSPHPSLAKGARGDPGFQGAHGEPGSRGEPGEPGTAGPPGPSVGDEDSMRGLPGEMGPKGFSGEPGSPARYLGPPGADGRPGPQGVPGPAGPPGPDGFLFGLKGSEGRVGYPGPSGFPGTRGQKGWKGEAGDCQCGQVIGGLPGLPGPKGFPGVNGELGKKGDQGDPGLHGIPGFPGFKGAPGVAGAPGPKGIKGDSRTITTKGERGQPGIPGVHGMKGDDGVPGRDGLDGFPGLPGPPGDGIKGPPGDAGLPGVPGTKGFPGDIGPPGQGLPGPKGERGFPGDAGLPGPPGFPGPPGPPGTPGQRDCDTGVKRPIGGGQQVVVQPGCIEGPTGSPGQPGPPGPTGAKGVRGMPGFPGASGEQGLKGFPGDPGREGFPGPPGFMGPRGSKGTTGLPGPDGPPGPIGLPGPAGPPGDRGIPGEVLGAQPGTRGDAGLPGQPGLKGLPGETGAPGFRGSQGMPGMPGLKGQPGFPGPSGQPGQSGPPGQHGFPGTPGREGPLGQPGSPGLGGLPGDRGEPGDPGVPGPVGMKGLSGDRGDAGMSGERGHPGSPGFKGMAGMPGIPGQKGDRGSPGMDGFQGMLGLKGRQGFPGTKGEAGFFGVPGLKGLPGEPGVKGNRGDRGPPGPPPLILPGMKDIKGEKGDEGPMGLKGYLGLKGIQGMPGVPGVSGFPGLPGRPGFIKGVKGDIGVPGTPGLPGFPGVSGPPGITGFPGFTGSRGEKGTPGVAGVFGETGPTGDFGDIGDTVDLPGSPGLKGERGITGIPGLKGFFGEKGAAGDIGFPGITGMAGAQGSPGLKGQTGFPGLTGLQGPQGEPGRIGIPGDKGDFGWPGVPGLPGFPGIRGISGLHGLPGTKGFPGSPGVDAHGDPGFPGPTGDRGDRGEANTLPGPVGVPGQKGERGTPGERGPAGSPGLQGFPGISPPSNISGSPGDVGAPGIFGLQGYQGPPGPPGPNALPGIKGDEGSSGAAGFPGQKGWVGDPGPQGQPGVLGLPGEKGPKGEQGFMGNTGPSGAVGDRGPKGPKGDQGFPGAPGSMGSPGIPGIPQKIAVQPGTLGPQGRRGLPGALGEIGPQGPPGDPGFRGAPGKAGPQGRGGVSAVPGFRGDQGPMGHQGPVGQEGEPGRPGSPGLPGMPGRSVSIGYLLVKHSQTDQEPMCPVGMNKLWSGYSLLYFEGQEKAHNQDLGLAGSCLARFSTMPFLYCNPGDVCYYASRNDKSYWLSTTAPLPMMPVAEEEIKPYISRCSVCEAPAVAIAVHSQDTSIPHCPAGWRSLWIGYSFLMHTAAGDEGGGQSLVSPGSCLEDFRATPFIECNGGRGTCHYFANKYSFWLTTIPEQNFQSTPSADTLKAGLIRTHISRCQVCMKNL

Row | Substance | detection of labeled peptide in MMTV PyMT tumors (MMTV PyMT tumors) | distribution of labeled peptide within tumor (MMTV PyMT tumors; 15 minutes after the injection) | distribution of labeled peptide within tumor (MMTV PyMT tumors; [4]) | detection of labeled peptide in normal tissues (MMTV PyMT tumors) | other results
1 | FITC-CREKA: fluorescein (FITC) labeled CREKA (SEQ ID NO: 1) peptide ({FITC}-CREKA) | detected | primarily in the tumor periphery | detected in the entire tumor | not observed | co-localization with collagen IV in tumors [1]: partially co-localized
2 | Fibronectin [reference compound] |  |  |  |  | effect of fibronectin on phage binding (clone #3 fragment / immobilized CREKA) ([2]; fibronectin, FIG. 5B): did not significantly reduce
3 | rhodamine-labeled CREKA: rhodamine labeled CREKA (SEQ ID NO: 1) peptide (also: rhodamine label, site not given here) | detected | primarily in the tumor periphery | detected in the entire tumor | not observed | CREKA peptide staining in heart (MMTV PyMT tumors; heart, co-injected with FITC-tomato-lectin, FIG. 3F): negative
4 | gelatin |  |  |  |  | effect of co-injection on in vivo tumor homing of CREKA-expressing phage (tumor): completely blocked
5 | CREKA [CREKA peptide] |  |  |  |  | inhibition of clone #3 collagen IV fragment phage binding to immobilized CREKA ([2]; 0.01 mg, 0.05 mg or 0.1 mg soluble peptide in 100 μl PBS, FIG. 5A): inhibited; effect of co-injected free peptide on homing of phage displaying the control peptide [3]: did not inhibit; effect of co-injected free peptide on CREKA-displaying phage recovery from breast cancer tissue ([3]; excess of free peptide, FIG. 1B): inhibited
6 | D(KLAKLAK)2 |  |  |  |  | mitochondrial swelling (mitochondrial membranes): marked mitochondrial swelling
